Assay results: patent publication US7144865B2, “Compositions and methods for treating obesity” (The United States of America as represented by the …, priority 2003, dated 2006)
Read-outs that look alike come from different tables or passages of the source.

Legend:
[1] = Arachidonic acid plus zinc and L-histidine in drinking water for 14 days in ob/ob and lean mice (Example 2, Table 3); assay type: in vivo; conditions: for Body Weight Gain / Food Intake / Water Intake: 14 days, mean ± SEM
Protocol: Eight week old male C57BL/6J-obese ob/ob mice and their lean wild-type littermates were randomly divided into five groups of five mice and treated with the following levels of AA in drinking water: (i) 0 mg AA/l; (ii) 10 mg AA/l; (iii) 20 mg AA/l; (iv) 50 mg AA/l; or (v) 100 mg AA/l. 10 mg zinc and 0.5 mg L-histidine/l were also included at each level of AA described above. The treatment solutions were replaced with freshly prepared solutions every other day during the 2-week treatment period. Body weight, and food and water intake were measured every other day in the morning, beginning the first day of treatment.

[2] = test system: intestinal zinc transport; conditions: cited from earlier work
[3] = cited from earlier work
[4] = test system: intestinal zinc absorption; conditions: normal (non-diabetic) rats, oral, cited from earlier work
[5] = Water intake in G-K rats treated with AA plus zinc (Example 3, FIG. 10); assay type: in vivo; conditions: One-month old G-K rats, 2 weeks
Text: (FIG. 10). Thus, water intake was reduced in rats with all treatments containing zinc relative to DW-treated rats, but not with the AA-only treatment.

[6] = cited from earlier work; remark: listed apart in the source
[7] = cited from earlier work; remark: listed apart in the source
[8] = CHP plus zinc and L-histidine in drinking water for 21 days in ob/ob and lean mice (Example 5, Table 1); assay type: in vivo; conditions: for Body Weight Gain / Food Intake / Water Intake: 21 days, mean ± SEM
Protocol: Ob/ob and lean mice were randomly divided into four groups and treated with drinking water containing either 0, 0.5, 1.0, or 1.5 mg CHP/L plus 10 mg zinc and 0.5 mg L-histidine/L. Drinking water containing test substances was prepared every other day with freshly prepared solutions. During the testing non-fasting blood glucose concentrations, food and water intake, and body weight were measured every other day in the morning. Non-fasting plasma insulin concentrations and three-hour average blood glucose concentrations were determined at the end of the three-week treatment period.

[9] = Plasma insulin levels in G-K rats treated with zinc and CHP (Example 1, Table 2); assay type: in vivo; conditions: for Plasma Insulin Levels (mean ± SEM): 6-month old G-K rats
Text: However, higher doses of CHP decreased plasma insulin levels. (Table 2)

[10] = humans; CHP intake; cited from earlier work
[11] = Body weight and growth rate of G-K rats treated with zinc or zinc plus CHP (FIGS. 1, 2, 11-13); assay type: in vivo; conditions: one month old (young) G-K rats; FIG. 2
Text: I believe that CHP is effective in maintaining body weight control even after the cessation of the treatment.

[12] = Body weight and water intake in S-D rats treated with zinc or zinc plus CHP (FIGS. 4, 5, 9); conditions: 8-month old S-D rats; FIG. 9
[13] = Food and water intake in G-K rats treated with zinc or zinc plus CHP (FIGS. 6, 8); assay type: in vivo
[14] = Lean mice, 10 mg/L AA plus 10 mg/L zinc and 0.5 mg/L L-histidine
[15] = Lean mice, 20 mg/L AA plus 10 mg/L zinc and 0.5 mg/L L-histidine
[16] = Lean mice, 50 mg/L AA plus 10 mg/L zinc and 0.5 mg/L L-histidine
[17] = Lean mice, 100 mg/L AA plus 10 mg/L zinc and 0.5 mg/L L-histidine
[18] = Ob/ob mice, 10 mg/L AA plus 10 mg/L zinc and 0.5 mg/L L-histidine
[19] = Ob/ob mice, 20 mg/L AA plus 10 mg/L zinc and 0.5 mg/L L-histidine, p < 0.05 vs 0 mg/l group
[20] = Ob/ob mice, 50 mg/L AA plus 10 mg/L zinc and 0.5 mg/L L-histidine
[21] = Ob/ob mice, 100 mg/L AA plus 10 mg/L zinc and 0.5 mg/L L-histidine
[22] = Lean mice, 0.5 mg/L CHP plus 10 mg/L zinc and 0.5 mg/L L-histidine
[23] = Lean mice, 1.0 mg/L CHP plus 10 mg/L zinc and 0.5 mg/L L-histidine
[24] = Lean mice, 1.5 mg/L CHP plus 10 mg/L zinc and 0.5 mg/L L-histidine
[25] = Ob/ob mice, 0.5 mg/L CHP plus 10 mg/L zinc and 0.5 mg/L L-histidine
[26] = Ob/ob mice, 1.0 mg/L CHP plus 10 mg/L zinc and 0.5 mg/L L-histidine
[27] = Ob/ob mice, 1.5 mg/L CHP plus 10 mg/L zinc and 0.5 mg/L L-histidine

CCCCC/C=C\C/C=C\C/C=C\C/C=C\CCCC(=O)O [AA, arachidonic acid]
Body Weight Gain [1, 14]: 1.0 ± 0.2 g
Food Intake [1, 14]: 143.9 ± 13.2 g/kg BW/day
Water Intake [1, 14]: 207.3 ± 23.6 ml/kg BW/day
Body Weight Gain [1, 15]: 0.6 ± 0.2 g
Food Intake [1, 15]: 129.9 ± 11.1 g/kg BW/day
Water Intake [1, 15]: 211.6 ± 23.6 ml/kg BW/day
Body Weight Gain [1, 16]: 1.0 ± 0.3 g
Food Intake [1, 16]: 133.1 ± 9.5 g/kg BW/day
Water Intake [1, 16]: 211.9 ± 21.5 ml/kg BW/day
Body Weight Gain [1, 17]: 0.6 ± 0.1 g
Food Intake [1, 17]: 130.0 ± 13.2 g/kg BW/day
Water Intake [1, 17]: 216.1 ± 21.0 ml/kg BW/day
Body Weight Gain [1, 18]: 2.3 ± 0.7 g
Food Intake [1, 18]: 126.5 ± 13.2 g/kg BW/day
Water Intake [1, 18]: 215.9 ± 15.2 ml/kg BW/day
Body Weight Gain ([1]; Ob/ob mice, 20 mg/L AA plus 10 mg/L zinc and 0.5 mg/L L-histidine): 2.6 ± 0.4 g
Food Intake [1, 19]: 107.5 ± 9.0 g/kg BW/day
Water Intake [1, 19]: 182.9 ± 12.4 ml/kg BW/day
Body Weight Gain [1, 20]: 2.4 ± 1.7 g
Food Intake [1, 20]: 114.4 ± 9.9 g/kg BW/day
Water Intake ([1]; Ob/ob mice, 50 mg/L AA plus 10 mg/L zinc and 0.5 mg/L L-histidine, p < 0.05 vs 0 mg/l group): 188.7 ± 11.5 ml/kg BW/day
Body Weight Gain [1, 21]: 2.9 ± 0.5 g
Food Intake [1, 21]: 116.0 ± 12.0 g/kg BW/day
Water Intake ([1]; Ob/ob mice, 100 mg/L AA plus 10 mg/L zinc and 0.5 mg/L L-histidine, p < 0.05 vs 0 mg/l group): 198.9 ± 15.3 ml/kg BW/day
water and food intake ([1]; lean mice): no treatment effect
Food intake versus those treated with only zinc and L-histidine ([1]; obese mice, 20 mg/L AA plus zinc, p<0.05): significantly lower
Water intake versus those given only zinc and L-histidine ([1]; obese mice, 20, 50 or 100 mg AA/l, p<0.05): significantly lower
body weight ([1]; obese or lean mice): no effect
zinc uptake (rate) of intestinal segments ([2]; jejunal / isolated intestinal segments of diabetic rats, AA added to the segment-bathing medium): increased significantly
zinc transport rate into the circulatory system ([2]; jejunal segments of diabetic rats): did not enhance
Water Intake ([3]; genetically obese mice): significantly reduced
optimal concentration of AA required to provide improved blood glucose levels ([3]; obese mice): 2.0 mg/day/kg
intestinal zinc absorption ([4]; high doses of AA, above 1.0 mg/200 g body weight): increased
intestinal zinc absorption ([4]; low doses of AA (0.5 mg/200 g)): decreased
water intake reduced relative to DW-treated rats ([5]; AA-only treatment (20 mg/L AA)): not
Water Intake ([6]; diabetic G-K rats): significantly reduced
optimal concentration of AA required to provide improved blood glucose levels ([6]; diabetic G-K rats): 4.0 mg/day/kg
water consumption rates ([6]; diabetic rats, higher doses of AA): significantly decreased
optimal concentration of AA required to provide improved blood glucose levels ([6]; streptozotocin induced diabetic rats): 11 mg/day/kg
Water Intake ([6]; streptozotocin-induced diabetic rats): significantly reduced

O=C1N[C@@H](Cc2cnc[nH]2)C(=O)N2CCC[C@@H]12 [CHP, cyclo-Hispro]
Water Intake ([7]; intraventricular administration): significantly reduces
Food Intake ([7]; rats, CHP intake): decreases
Body Weight Gain [8, 22]: 1.5 ± 0.4 g
Food Intake [8, 22]: 171.7 ± 12.5 g/kg BW/day
Water Intake [8, 22]: 267.1 ± 22.7 ml/kg BW/day
Body Weight Gain [8, 23]: 1.3 ± 0.5 g
Food Intake [8, 23]: 159.6 ± 7.3 g/kg BW/day
Water Intake [8, 23]: 258.2 ± 21.8 ml/kg BW/day
Body Weight Gain [8, 24]: 2.2 ± 0.9 g
Food Intake [8, 24]: 180.6 ± 19.5 g/kg BW/day
Water Intake [8, 24]: 302.5 ± 27.2 ml/kg BW/day
Body Weight Gain [8, 25]: 4.3 ± 0.8 g
Food Intake [8, 25]: 128.3 ± 7.8 g/kg BW/day
Water Intake [8, 25]: 198.2 ± 13.5 ml/kg BW/day
Food Intake [8, 26]: 110.6 ± 10.3 g/kg BW/day
Water Intake [8, 26]: 160.4 ± 9.7 ml/kg BW/day
Body Weight Gain ([8]; Ob/ob mice, 1.0 mg/L CHP plus 10 mg/L zinc and 0.5 mg/L L-histidine, p < 0.05 vs 0 or 0.5 mg CHP/L): 2.3 ± 0.8 g
Body Weight Gain [8, 27]: 3.8 ± 0.9 g
Food Intake [8, 27]: 120.7 ± 10.4 g/kg BW/day
Water Intake [8, 27]: 192.5 ± 16.8 ml/kg BW/day
Water and food intake relative to the other treatment groups ([8]; ob/ob mice, 1.0 mg CHP plus zinc and L-histidine, difference not significant): lowest
Body weight gain relative to those given zinc and L-histidine only ([8]; ob/ob mice, 1.0 mg CHP/L plus zinc and L-histidine, P<0.05): significantly reduced
Plasma Insulin Levels (mean ± SEM) ([9]; CHP only 1.0 mg/L in drinking water): 0.907 ± 0.090 ng/mL
plasma insulin levels ([9]; hyperinsulinemic diabetic G-K rats, higher / increasing doses of CHP): decreased
Food Intake [10]: decreases

[Zn] [zinc]
growth rates [11]: not affected
water intakes [12]: significantly decreased
Water Intake ([13]; 1.0-month-old rats): not affected
Water intake compared to distilled water (DW) treated rats ([13]; 10 month old G-K rats, P<0.01, FIG. 8): significantly lower
Plasma Insulin Levels (mean ± SEM) ([9]; zinc only 10 mg/L in drinking water): 0.637 ± 0.048 ng/mL
Water Intake ([5]; 10 mg/L zinc only): significantly decreased
